Test results published in patent publication US9115122B2, “Non-ATP dependent inhibitors of extracellular signal-regulated kinase (ERK)” (UNIVERSITY OF MARYLAND, BALTIMORE, priority 2012, dated 2015).

Experiments:
Assay in all cases: Cell proliferation WST-1 assay, single dose (Example 4)
Type in all cases: cell-based
Conditions in all cases: 100 μM, 48 hours
A375 melanoma cells = tested on: A375 melanoma cells
Method: (§1) In addition, compounds were tested in RPMI-7951 cells, which also contain mutated BRaf and are resistant to BRaf inhibitors due to the overexpression of MAP3K8 (the gene encoding COT/Tp12) that provides an alternative mechanism to indirectly or directly activate ERK proteins. […] For comparison, HeLa cervical carcinoma and Jurkat T-cell leukemia cells, which are p53 defective cancer cell lines but contain no known activating mutations in the ERK pathway, were studied. […] Cell proliferation was evaluated by water soluble tetrazolium-1 (WST-1) assay as previously described. Briefly, cells (˜5000/well) were seeded in 96 well plates, allowed to recover for 16-20 hours, and then treated with the indicated test compound for 48 hours. After incubation, WST-1 reagent was added and absorbance was read at 450 nm with background subtraction taken at 650 nm. Values were normalized to the control (DMSO only treated) cells.

[1] = tested on: HeLa cervical carcinoma cells
Method: as §1

RPMI-7951 melanoma cells = tested on: RPMI-7951 melanoma cells
Method: as §1

[2] = tested on: Jurkat T-cell leukemia cells
Method: as §1

SK-MEL-28 melanoma cells = tested on: SK-MEL-28 melanoma cells
Method: as §1

HL-60 leukemic cells = tested on: HL-60 leukemic cells
Method: as §1

Structure (SMILES) | Cell Viability (% of Vehicle) A375 (A375 melanoma cells) | Cell Viability (% of Vehicle) HeLa [1] | Cell Viability (% of Vehicle) RPMI-7951 (RPMI-7951 melanoma cells) | Cell Viability (% of Vehicle) Jurkat [2] | Cell Viability (% of Vehicle) SK-MEL-28 (SK-MEL-28 melanoma cells) | Cell Viability (% of Vehicle) HL-60 (HL-60 leukemic cells)
CCOc1ccc(/C=C2\SC(=O)N(CCO)C2=O)cc1 [Compound 28e, (Z)-5-(4-ethoxybenzylidene)-3-(2-hydroxyethyl)thiazolidine-2,4-dione] | 116 ± 4 % of Vehicle | 91 ± 2 % of Vehicle | 137 ± 8 % of Vehicle | 101 ± 4 % of Vehicle | 91 ± 1 % of Vehicle | 91 ± 19 % of Vehicle
CCOc1ccc(/C=C2\SC(=O)N(CCCl)C2=O)cc1 [Compound 28f, (Z)-3-(2-chloroethyl)-5-(4-ethoxybenzylidene)thiazolidine-2,4-dione] | 113 ± 9 % of Vehicle | 87 ± 4 % of Vehicle | 128 ± 3 % of Vehicle | 99 ± 5 % of Vehicle | 97 ± 3 % of Vehicle | 99 ± 14 % of Vehicle
CCOc1ccc(/C=C2\SC(=O)N(CC(=O)OC(C)(C)C)C2=O)cc1 [Compound 28g, (Z)-tert-butyl 2-(5-(4-ethoxybenzylidene)-2,4-dioxothiazolidin-3-yl)acetate] | 117 ± 7 % of Vehicle | 88 ± 7 % of Vehicle | 110 ± 3 % of Vehicle | 108 ± 3 % of Vehicle | 101 ± 2 % of Vehicle | 95 ± 18 % of Vehicle
CCOc1ccc(/C=C2\SC(=O)N(CC(=O)O)C2=O)cc1 [Compound 28h, (Z)-2-(5-(4-ethoxybenzylidene)-2,4-dioxothiazolidin-3-yl)acetic acid] | 122 ± 6 % of Vehicle | 104 ± 3 % of Vehicle | 133 ± 9 % of Vehicle | 108 ± 3 % of Vehicle | 106 ± 1 % of Vehicle | 97 ± 27 % of Vehicle
CCOc1ccc(/C=C2\SC(=O)N(Cc3ccccc3)C2=O)cc1 [Compound 28i, (Z)-3-benzyl-5-(4-ethoxybenzylidene)thiazolidine-2,4-dione] | 110 ± 4 % of Vehicle | 95 ± 4 % of Vehicle | 114 ± 20 % of Vehicle | 105 ± 4 % of Vehicle | 90 ± 3 % of Vehicle | 65 ± 1 % of Vehicle
CCOc1ccc(/C=C2\SC(=O)N(Cc3ccccn3)C2=O)cc1 [Compound 28j, (Z)-5-(4-ethoxybenzylidene)-3-(pyridin-2-ylmethyl)thiazolidine-2,4-dione] | 124 ± 6 % of Vehicle | 89 ± 5 % of Vehicle | 114 ± 5 % of Vehicle | 101 ± 7 % of Vehicle | 95 ± 3 % of Vehicle | 89 ± 31 % of Vehicle
CCOc1ccc(/C=C2\SC(=O)N(Cc3cccnc3)C2=O)cc1 [Compound 28k, (Z)-5-(4-ethoxybenzylidene)-3-(pyridin-3-ylmethyl)thiazolidine-2,4-dione] | 105 ± 4 % of Vehicle | 80 ± 2 % of Vehicle | 102 ± 2 % of Vehicle | 98 ± 2 % of Vehicle | 79 ± 4 % of Vehicle | 65 ± 12 % of Vehicle
CCOc1ccc(/C=C2\SC(=O)N(Cc3ccncc3)C2=O)cc1 [Compound 28l, (Z)-5-(4-ethoxybenzylidene)-3-(pyridin-4-ylmethyl)thiazolidine-2,4-dione] | 105 ± 12 % of Vehicle | 81 ± 5 % of Vehicle | 102 ± 3 % of Vehicle | 96 ± 11 % of Vehicle | 79 ± 3 % of Vehicle | 82 ± 54 % of Vehicle
CCOc1ccc(/C=C2\SC(=O)N(Cc3ccc(C#N)cc3)C2=O)cc1 [Compound 28m, (Z)-4-((5-(4-ethoxybenzylidene)-2,4-dioxothiazolidin-3-yl)methyl)benzonitrile] | 108 ± 3 % of Vehicle | 95 ± 3 % of Vehicle | 106 ± 8 % of Vehicle | 103 ± 11 % of Vehicle | 97 ± 7 % of Vehicle | 86 ± 37 % of Vehicle
CCOc1ccc(/C=C2\SC(=O)N(Cc3ccc([N+](=O)[O-])cc3)C2=O)cc1 [Compound 28n, (Z)-5-(4-ethoxybenzylidene)-3-(4-nitrobenzyl)thiazolidine-2,4-dione] | 117 ± 3 % of Vehicle | 97 ± 9 % of Vehicle | 119 ± 13 % of Vehicle | 101 ± 9 % of Vehicle | 104 ± 3 % of Vehicle | 97 ± 23 % of Vehicle
CCOc1ccc(/C=C2\SC(=O)N(Cc3ccc(N)cc3)C2=O)cc1 [Compound 28o, (Z)-3-(4-aminobenzyl)-5-(4-ethoxybenzylidene)thiazolidine-2,4-dione] | 119 ± 6 % of Vehicle | 89 ± 9 % of Vehicle | 102 ± 23 % of Vehicle | 97 ± 7 % of Vehicle | 94 ± 5 % of Vehicle | 86 ± 21 % of Vehicle
CCOc1ccc(/C=C2\SC(=O)N(Cc3ccc(C(=O)OC(C)(C)C)cc3)C2=O)cc1 [Compound 28p, (Z)-tert-butyl 4-((5-(4-ethoxybenzylidene)-2,4-dioxothiazolidin-3-yl)methyl)benzoate] | 119 ± 1 % of Vehicle | 100 ± 6 % of Vehicle | 122 ± 1 % of Vehicle | 101 ± 2 % of Vehicle | 105 ± 3 % of Vehicle | 98 ± 24 % of Vehicle
CCOc1ccc(/C=C2\SC(=O)N(Cc3ccc(C(=O)O)cc3)C2=O)cc1 [Compound 28q, (Z)-4-((5-(4-ethoxybenzylidene)-2,4-dioxothiazolidin-3-yl)methyl)benzoic acid] | 2.0 ± 0.5 % of Vehicle | 64 ± 2 % of Vehicle | 34 ± 3 % of Vehicle | 85 ± 3 % of Vehicle | 59 ± 13 % of Vehicle | 84 ± 37 % of Vehicle
CCOc1ccc(/C=C2\SC(=O)N(Cc3cccc(C(=O)O)c3)C2=O)cc1 [Compound 28r, (Z)-3-((5-(4-ethoxybenzylidene)-2,4-dioxothiazolidin-3-yl)methyl)benzoic acid] | 59 ± 1 % of Vehicle | 75 ± 4 % of Vehicle | 83 ± 6 % of Vehicle | 80 ± 3 % of Vehicle | 83 ± 7 % of Vehicle | 41 ± 22 % of Vehicle
